# From the supplement of paper PMC10307832
# Experiments:
# Test in all cases: relative viability (nuclei count vs DMSO), 5 days (fraction); higher = more cells survive
# [1] = compound: C1=CC2=NC=CN=C2C=C1/C=C/3\C(=O)NC(=O)S3
# In short: (§1)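 Acceptance criteria were a control CV below 25% and at least one doubling per plate. Lung cancer cell lines in 1536-well plates got five library-drug doses (not always all listed) √10 apart by pinning and were left 5 days with no medium change. Viability divides treated-well nuclei by vehicle-well nuclei and is the median across plates. Nuclei were counted by MetaXpress from 4× Hoechst images.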
# BGJ398 = compound: CCN1CCN(c2ccc(Nc3cc(N(C)C(=O)Nc4c(Cl)c(OC)cc(OC)c4Cl)ncn3)cc2)CC1 [BGJ398]
# In short: as §1
# [2] = compound: C1=CC2=NC=CN=C2C=C1/C=C/3\C(=O)NC(=O)S3 + COc1cccc2cc(-c3nc([C@H]4CC[C@H](C(=O)O)CC4)n4ncnc(N)c34)[nH]c12 [OSI-027] (partner 0.5 µM)
# In short: (§2)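 Lung cancer cell lines were seeded in 1536-well plates and dosed by pin tool the next day, with either a single drug or a fixed anchor-drug dose combined with five library-drug doses (not always all listed) spaced in √10 steps. Five days later, one step fixed the cells and stained their nuclei (final 0.05% Triton X-100, 1% formaldehyde, 1 ug/ml Hoechst), and nuclei were counted on 4× images. Relative viability is the nuclei count in treated wells divided by the count in vehicle wells, and each value is the median of duplicate plates.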
# BGJ398 + Pemetrexed = compound: CCN1CCN(c2ccc(Nc3cc(N(C)C(=O)Nc4c(Cl)c(OC)cc(OC)c4Cl)ncn3)cc2)CC1 [BGJ398] + Nc1nc2[nH]cc(CCc3ccc(C(=O)N[C@@H](CCC(=O)O)C(=O)O)cc3)c2c(=O)[nH]1 [Pemetrexed] (partner 0.2 µM)
# In short: as §2
Cell Line,relative viability ([1]; 0.02 µM),relative viability ([1]; 0.06325 µM),relative viability ([1]; 0.2 µM),relative viability ([1]; 0.6325 µM),relative viability ([1]; 2 µM),relative viability (BGJ398; 0.01 µM),relative viability (BGJ398; 0.03162 µM),relative viability (BGJ398; 0.1 µM),relative viability (BGJ398; 0.3162 µM),relative viability (BGJ398; 1 µM),relative viability ([2]; first compound 0.02 µM),relative viability ([2]; first compound 0.06325 µM),relative viability ([2]; first compound 0.2 µM),relative viability ([2]; first compound 0.6325 µM),relative viability ([2]; first compound 2 µM),relative viability (BGJ398 + Pemetrexed; first compound 0.01 µM),relative viability (BGJ398 + Pemetrexed; first compound 0.03162 µM),relative viability (BGJ398 + Pemetrexed; first compound 0.1 µM),relative viability (BGJ398 + Pemetrexed; first compound 0.3162 µM),relative viability (BGJ398 + Pemetrexed; first compound 1 µM)
NCI-H322M,0.935,0.969,0.995,0.916,0.739,1.07,0.754,0.948,0.815,1.02,0.546,0.478,0.497,0.53,0.384,0.662,0.635,0.637,0.603,0.631
NCI-H358,1.08,0.959,0.955,0.887,0.425,0.843,0.942,1.1,0.882,1.3,0.869,0.753,0.768,0.623,0.228,0.173,0.167,0.199,0.17,0.188
NCI-H441,0.863,0.875,0.885,1.2,0.736,0.807,0.977,1.16,1.05,1.01,0.742,0.695,0.759,0.669,0.405,–,0.234,0.243,0.251,0.288
NCI-H460,0.933,0.964,0.999,0.939,0.942,1.02,1.04,1.11,0.984,0.988,0.727,1,0.781,0.525,0.394,0.0621,0.0761,0.0595,0.0608,0.0687
NCI-H520,1.03,1.14,1.06,0.855,0.927,0.954,0.954,0.758,0.312,0.4,0.25,0.356,0.249,0.27,0.36,0.691,0.532,0.531,0.341,0.311
NCI-H522,0.934,1.13,1,0.75,0.751,0.918,0.89,1.04,0.82,0.874,0.706,0.763,0.675,0.717,0.562,0.987,0.896,0.876,0.995,0.856
NCI-H596,1.06,0.938,1.1,0.834,0.867,1.13,0.931,0.978,0.92,0.8,0.749,0.542,0.875,0.677,0.532,0.424,0.476,0.439,0.477,0.431
NCI-H647,0.959,1.13,1.08,0.84,0.938,0.869,1.07,1.03,0.867,0.799,0.531,0.84,0.633,0.532,0.515,0.179,0.16,0.19,0.201,0.185
NCI-H650,0.951,1.04,1.07,0.914,0.529,0.883,1.21,1.02,1.03,0.665,0.519,0.601,0.621,0.495,0.269,0.988,0.931,0.995,0.956,0.974
NCI-H661,1.01,1.04,1.02,0.972,1.07,0.977,0.997,0.983,0.987,0.914,0.785,0.796,0.682,0.621,0.584,0.912,0.877,0.961,0.977,0.912
NCI-H838,0.96,0.957,1.02,0.821,0.776,0.845,0.938,0.984,0.8,0.742,0.448,0.437,0.438,0.399,0.226,0.227,0.243,0.217,0.237,0.23
NCI-H1355,0.821,0.984,1.05,0.923,0.875,0.943,0.961,1.02,0.971,0.795,0.383,0.338,0.402,0.396,0.258,0.981,1.01,1.06,1.03,0.945
NCI-H1395,1.05,0.985,1.06,0.884,0.899,0.853,0.946,0.847,0.589,0.483,0.667,0.64,0.738,0.588,0.583,0.827,0.82,0.77,0.559,0.524
NCI-H1437,1.01,0.983,1.04,0.964,0.703,0.978,1.01,1,1,0.832,0.941,0.995,0.922,0.784,0.197,0.322,0.309,0.296,0.321,0.298
NCI-H1563,1.06,0.93,1.11,0.822,1.12,0.992,0.993,0.936,0.831,0.701,0.834,0.823,0.76,0.734,0.65,0.749,0.968,0.754,0.58,0.433
NCI-H1648,0.925,0.605,1.11,0.701,1,0.882,0.809,0.73,0.775,0.889,0.238,–,0.313,0.246,0.261,0.85,–,0.821,0.896,0.651

Cell Line,relative viability ([1]; 0.02 µM),relative viability ([1]; 0.06325 µM),relative viability ([1]; 0.2 µM),relative viability ([1]; 0.6325 µM),relative viability ([1]; 2 µM),relative viability (BGJ398; 0.01 µM),relative viability (BGJ398; 0.03162 µM),relative viability (BGJ398; 0.1 µM),relative viability (BGJ398; 0.3162 µM),relative viability (BGJ398; 1 µM),relative viability ([2]; first compound 0.02 µM),relative viability ([2]; first compound 0.06325 µM),relative viability ([2]; first compound 0.2 µM),relative viability ([2]; first compound 0.6325 µM),relative viability ([2]; first compound 2 µM),relative viability (BGJ398 + Pemetrexed; first compound 0.01 µM),relative viability (BGJ398 + Pemetrexed; first compound 0.03162 µM),relative viability (BGJ398 + Pemetrexed; first compound 0.1 µM),relative viability (BGJ398 + Pemetrexed; first compound 0.3162 µM),relative viability (BGJ398 + Pemetrexed; first compound 1 µM)
NCI-H1650,0.953,0.952,0.974,1,0.975,0.874,0.747,0.909,0.487,0.692,0.688,0.605,0.783,0.677,0.493,0.391,0.361,0.354,0.295,0.319
NCI-H1651,0.959,0.876,0.994,0.877,0.884,0.921,0.96,1.08,0.936,0.87,0.711,0.723,0.794,0.658,0.527,0.544,0.542,0.615,0.588,0.423
NCI-H1666,0.944,0.962,0.966,0.971,0.893,1,1.03,0.966,0.98,0.8,0.873,0.825,0.84,0.812,0.459,0.919,0.935,0.8,0.929,0.737
NCI-H1734,0.94,–,1.07,0.916,0.635,0.895,1.02,1.06,0.93,1.05,0.697,0.487,0.665,0.522,0.324,0.405,0.403,0.405,0.378,0.415
NCI-H1755,0.887,0.949,0.986,0.925,0.93,0.933,1.06,1.05,0.963,1.01,0.712,0.838,0.71,0.699,0.575,0.438,0.44,0.428,0.443,0.427
NCI-H1792,0.956,0.783,0.927,0.857,0.411,0.903,0.851,0.704,0.811,0.652,0.722,0.65,0.728,0.666,0.294,0.723,0.791,0.831,0.743,0.749
NCI-H1793,0.81,0.729,1.02,0.739,0.736,0.877,0.644,0.927,0.698,0.808,0.28,0.201,0.289,0.265,0.203,0.942,0.526,0.809,0.569,0.454
NCI-H1915,0.98,1.1,1.07,0.966,0.966,0.971,1.02,0.995,0.965,0.939,0.679,0.71,0.727,0.674,0.603,0.511,0.524,0.571,0.458,0.521
NCI-H1944,0.902,1.07,1.09,0.871,0.77,0.869,0.985,0.973,0.873,0.946,0.412,0.395,0.427,0.385,0.258,0.652,0.635,0.502,0.495,0.606
NCI-H1975,0.842,1.02,0.964,0.884,0.813,0.876,1.06,1.09,0.937,0.866,0.708,0.805,0.808,0.619,0.417,0.274,0.309,0.301,0.291,0.298
NCI-H1993,0.815,0.956,1.02,0.923,0.622,1.24,0.893,0.957,0.972,0.886,0.494,0.552,0.551,0.544,0.475,0.559,0.543,0.575,0.572,0.549
NCI-H2009,0.996,1.03,1.04,1.02,0.923,0.924,1.07,0.994,0.974,1.06,0.682,0.659,0.701,0.579,0.452,1.02,1.04,1.04,1.11,1.09
NCI-H2023,0.94,0.966,1.02,0.886,0.773,0.872,0.998,0.997,0.977,1.01,0.423,0.346,0.478,0.326,0.161,0.279,0.227,0.248,0.252,0.242
NCI-H2085,0.952,1.01,1,0.983,0.892,0.951,1.01,1.01,0.938,1.03,0.75,0.847,0.82,0.827,0.635,0.927,0.845,0.885,0.978,1.04
NCI-H2087,0.918,0.925,1.05,0.951,0.926,1.01,1.01,0.966,1.08,1.09,0.42,0.523,0.615,0.574,0.37,0.644,0.606,0.671,0.699,0.678
